IC50 data for 66 molecules are collected here from patent US9102670B2, “Pyrido-, pyrazo- and pyrimido-pyrimidine derivatives as mTOR inhibitors” (KuDOS Pharmaceuticals Limited, priority 2006, dated 2015).

In one test the test system is phosphorylation of Serine 473 in Akt. Briefly: In Vitro Phospho-Ser473 Akt Assay in MDA-MB-468 cells. The test is classed as cell-based. To be noted: Homo sapiens, MDA-MB-468, read-out: IC50 values against mTOR, phospho-Ser473 Akt assay, MDA-MB-468 cells.
On to `C[C@H]1COCCN1c1nc(N2CCOC[C@@H]2C)c2ccc(-c3ccc(F)c(CN4CC[C@@H](O)C4)c3)nc2n1` [Example 4ad], for which the IC50 (usually the midpoint of a concentration-inhibition curve) was below 300 nM.

`C[C@H]1COCCN1c1nc(N2CCOC[C@@H]2C)c2ccc(-c3ccc4[nH]ccc4c3)nc2n1` [Example 1bm]: the IC50 is below 100 nM.

On to `COc1ccc(-c2ccc3c(N4CCOC[C@@H]4C)nc(N4CCN(C)CC4)nc3n2)cc1CO` [Example 18cg], for which the 50% inhibitory concentration (IC50) was below 300 nM.

As to `COc1ccc(-c2ccc3c(N4CCOC[C@@H]4C)nc(N(CCO)C(C)C)nc3n2)cc1CO` [Example 18cs], the IC50 was below 100 nM.

For `COc1ccc(-c2ccc3c(N4CCOC[C@@H]4C)nc(-c4cccnc4)nc3n2)cc1CO` [Example 19j], the IC50 is below 100 nM.

In the case of `CCNCc1ccc(-c2ccc3c(N4CCOC[C@@H]4C)nc(N4CCOC[C@@H]4C)nc3n2)o1` [Example 7d], the IC50 was below 100 nM.

Consider `COc1ccc(-c2ccc3c(N4CCOC[C@@H]4C)nc(N4CCOC[C@@H]4C)nc3n2)cc1C(=O)NCCO` [Example 8b], for which the IC50 was below 100 nM.

On to `COc1ccc(-c2ccc3c(N4CCOC[C@@H]4C)nc(N[C@@H](C)CO)nc3n2)cc1CO` [Example 18bx], for which the IC50 was below 300 nM.

Turning to `Cc1ccc(-c2cnc3c(N4CCOC[C@@H]4C)nc(N4CCOC[C@@H]4C)nc3n2)cc1` [Example 12c], the concentration for half-maximal inhibition (IC50) was below 100 nM.

In the case of `COc1ccc(-c2ccc3c(N4CCOC[C@@H]4C)nc(NC(C)(C)CO)nc3n2)cc1CO` [Example 18cc], the IC50 is below 100 nM.

Turning to `COc1ccc(-c2ccc3c(N4CCOC[C@@H]4C)nc(N4CCC(CN)CC4)nc3n2)cc1CO` [Example 18s], the IC50 is below 100 nM.

With `C[C@H]1COCCN1c1nc(N2CCOC[C@@H]2C)c2ccc(-c3ccc(F)c(CNCC4CC4)c3)nc2n1` [Example 4z], the IC50 is below 100 nM.

As to `CC(C)NCc1cccc(-c2ccc3c(N4CCOC[C@@H]4C)nc(N4CCOC[C@@H]4C)nc3n2)c1` [Example 4k], the IC50 was below 100 nM.

For the molecule `C[C@H]1COCCN1c1nc(N2CCOC[C@@H]2C)c2ccc(-c3cccc(S(N)(=O)=O)c3)nc2n1` [Example 1bd], the IC50 is below 300 nM.

With `C[C@H]1COCCN1c1nc(N2CCOC[C@@H]2C)c2ccc(-c3cccc(CN4CC[C@H](O)C4)c3)nc2n1` [Example 4s], the IC50 was below 100 nM.

Turning to `C[C@H]1COCCN1c1nc(N2CCOC[C@@H]2C)c2ccc(-c3cccc(C(=O)NCCO)c3)nc2n1` [Example 8a], the IC50 was below 100 nM.

With `COC(=O)c1cccc(-c2ccc3c(N4CCOC[C@@H]4C)nc(N4CCOC[C@@H]4C)nc3n2)c1` [Example 1ba], the IC50 is below 100 nM.

Turning to `C[C@H]1COCCN1c1nc(N2CCOC[C@@H]2C)c2ccc(-c3cccc(C(=O)NC4CCOCC4)c3)nc2n1` [Example 3i], the IC50 was below 100 nM.

In the case of `COc1ccc(-c2ccc3c(N4CCOC[C@@H]4C)nc(N4CCC(N5CCOCC5)CC4)nc3n2)cc1CO` [Example 18ac], the half-maximal inhibitory concentration (IC50) was below 100 nM.

Consider `COc1ccc(-c2ccc3c(N4CCOC[C@@H]4C)nc(N4CCOC[C@@H]4C)nc3n2)cc1CNC1CCCC1` [Example 4an], for which the IC50 was below 300 nM.

As to `COCC(=O)NCc1cccc(-c2ccc3c(N4CCOC[C@@H]4C)nc(N4CCOC[C@@H]4C)nc3n2)c1` [Example 5b], the IC50 is below 300 nM.

Consider `C[C@H]1COCCN1c1nc(N2CCOC[C@@H]2C)c2ccc(-c3cccc(CNc4cc[nH]n4)c3)nc2n1` [Example 4p], for which the concentration for half-maximal inhibition (IC50) is below 300 nM.

`C[C@H]1COCCN1c1nc(N2CCOC[C@@H]2C)c2ccc(-c3cccc(C(=O)NCCF)c3)nc2n1` [Example 3e]: the IC50 is below 300 nM.

For the molecule `COc1ccc(-c2ccc3c(N4CCOC[C@@H]4C)nc(N4C(C)CCC4C)nc3n2)cc1CO` (stereo partly drawn) [Example 18bg], the IC50 is below 100 nM.

Take `C[C@@H]1CN(c2nc(N3CCOC[C@@H]3C)c3ccc(-c4ccoc4)nc3n2)C[C@H](C)O1` [Example 1cf]: the IC50 was below 300 nM.

As for `C[C@H]1COCCN1c1nc(N2CCOC[C@@H]2C)c2ccc(-c3ccc(C(N)=O)cc3)nc2n1` [Example 1ao], the IC50 was below 300 nM.

Consider `C[C@H]1COCCN1c1nc(N2CCOC[C@@H]2C)c2ccc(-c3ccc(F)c(C(=O)NCCO)c3)nc2n1` [Example 1ag], for which the IC50 is below 100 nM.

Turning to `COc1ccc(-c2ccc3c(N4CCOC[C@@H]4C)nc(N4CCCC(c5nc(C)no5)C4)nc3n2)cc1CO` (stereo partly drawn) [Example 18ar], the IC50 was below 100 nM.

For `CC(=O)NCc1cccc(-c2ccc3c(N4CCOC[C@@H]4C)nc(N4CCOC[C@@H]4C)nc3n2)c1` [Example 5a], the IC50 is below 100 nM.

Consider `CC(C)NCc1ccc(-c2ccc3c(N4CCOC[C@@H]4C)nc(N4CCOC[C@@H]4C)nc3n2)o1` [Example 7k], for which the IC50 was below 100 nM.

As to `C[C@H]1COCCN1c1nc(N2CCOC[C@@H]2C)c2ccc(-c3ccc(F)c(C(N)=O)c3)nc2n1` [Example 1ab], the IC50 was below 300 nM.

For the molecule `C[C@H]1COCCN1c1nc(N2CCOC[C@@H]2C)c2ccc(-c3ccc(CNC4CCOCC4)o3)nc2n1` [Example 7f], the IC50 is below 100 nM.

Take `C[C@H]1COCCN1c1nc(N2CCOC[C@@H]2C)c2ccc(-c3ccccc3)nc2n1` [Example 1d]: the IC50 was below 100 nM.

For the molecule `COc1ccc(-c2ccc3c(N4CCOC[C@@H]4C)nc(N4CCC(c5ccccc5)CC4)nc3n2)cc1CO` [Example 18be], the IC50 is below 100 nM.

For the molecule `COc1ccc(-c2ccc3c(N4CCOC[C@@H]4C)nc(N4CCNCC4)nc3n2)cc1CO` [Example 18ca], the IC50 was below 300 nM.

For `COCCN(CCOC)c1nc(N2CCOC[C@@H]2C)c2ccc(-c3ccc(OC)c(CO)c3)nc2n1` [Example 18cj], the IC50 is below 100 nM.

Regarding `COc1ccc(-c2ccc3c(N4CCOC[C@@H]4C)nc(N4CCCCC4CO)nc3n2)cc1CO` (stereo partly drawn) [Example 18bm], the IC50 is below 100 nM.

As for `C[C@H]1COCCN1c1nc(N2CCOC[C@@H]2C)c2ccc(-c3ccc(OCCN(C)C)nc3)nc2n1` [Example 13b], the IC50 is below 300 nM.

As to `COc1ccc(-c2ccc3c(N4CCOC[C@@H]4C)nc(-n4ccnc4C)nc3n2)cc1CO` [Example 18cn], the IC50 is below 300 nM.

`COc1ccc(-c2ccc3c(N4CCOC[C@@H]4C)nc(N4CCOC[C@@H]4C)nc3n2)cc1CNC1CCCCCCC1` [Example 4bf]: the IC50 is below 100 nM.

With `C[C@H]1COCCN1c1nc(N2CCOC[C@@H]2C)c2ccc(-c3cccc(CN4CC[C@@H](O)C4)c3)nc2n1` [Example 4r], the IC50 is below 100 nM.

As to `COCCOc1nc(N2CCOC[C@@H]2C)c2ccc(-c3ccc(OC)c(CO)c3)nc2n1` [Example 18cx], the IC50 is below 300 nM.

On to `C[C@H]1COCCN1c1nc(N2CCOC[C@@H]2C)c2ccc(-c3cc(F)nc(F)c3)nc2n1` [Example 1ay], for which the IC50 was below 300 nM.

In the case of `CCOCc1cccc(-c2ccc3c(N4CCOC[C@@H]4C)nc(N4CCOC[C@@H]4C)nc3n2)c1` [Example 4g], the IC50 was below 300 nM.

On to `CNCc1ccc(-c2ccc3c(N4CCOC[C@@H]4C)nc(N4CCOC[C@@H]4C)nc3n2)o1` [Example 7c], for which the IC50 is below 100 nM.

For `COc1ccc(-c2ccc3c(N4CCOC[C@@H]4C)nc(N4CCCC(O)C4)nc3n2)cc1CO` (stereo partly drawn) [Example 18k], the IC50 was below 100 nM.

Still in this test, the particulars now being: Homo sapiens, MDA-MB-468, read-out: IC50 values against mTOR, phospho-Ser473 Akt assay, MDA-MB-468 cells, upper bound.
On to `C[C@H]1COCCN1c1nc(-c2cnn(C)c2)nc2nc(-c3cccc(CO)c3)ccc12` [Example 19v], for which the IC50 is below 1000 nM.

As to `C[C@H]1COCCN1c1nc(N2CCC(c3ccncc3)CC2)nc2nc(-c3ccc(N)nc3)ccc12` [Example 2e], the IC50 is below 1000 nM.

Turning to `COC(=O)c1cccc(-c2nc(N3CCOC[C@@H]3C)c3ccc(-c4ccc(OC)c(CO)c4)nc3n2)c1` [Example 19h], the half-maximal inhibitory concentration (IC50) is below 1000 nM.

With `COc1ccc(-c2ccc3c(N4CCOC[C@@H]4C)nc(NC(C)CN(C)C)nc3n2)cc1CO` (stereo partly drawn) [Example 18ct], the IC50 is below 1000 nM.

Turning to `CC(C)CC(=O)NCc1cccc(-c2ccc3c(N4CCOC[C@@H]4C)nc(N4CCOC[C@@H]4C)nc3n2)c1` [Example 5f], the IC50 is below 1000 nM.

Turning to `CC(C)CC(=O)NCc1cc(-c2ccc3c(N4CCOC[C@@H]4C)nc(N4CCOC[C@@H]4C)nc3n2)ccc1F` [Example 5y], the IC50 is below 1000 nM.

Turning to `COC(=O)c1cncn1-c1nc(N2CCOC[C@@H]2C)c2ccc(-c3ccc(OC)c(CO)c3)nc2n1` [Example 18az], the 50% inhibitory concentration (IC50) is below 1000 nM.

Take `COc1ccc(-c2ccc3c(N4CCOC[C@@H]4C)nc(NCCN(C)C)nc3n2)cc1CO` [Example 18cb]: the 50% inhibitory concentration (IC50) was below 1000 nM.

Regarding `COc1cccc(-c2nc(N3CCOC[C@@H]3C)c3ccc(-c4ccc(OC)c(CO)c4)nc3n2)c1` [Example 19o], the half-maximal inhibitory concentration (IC50) is below 1000 nM.

`CC(=O)NCc1cc(-c2ccc3c(N4CCOC[C@@H]4C)nc(N4CCOC[C@@H]4C)nc3n2)ccc1F` [Example 5t]: the IC50 is below 1000 nM.

For `COc1ccc(-c2ccc3c(N4CCOC[C@@H]4C)nc(-c4cccc([N+](=O)[O-])c4)nc3n2)cc1CO` [Example 19i], the IC50 is below 1000 nM.

Take `COCCNc1nc(N2CCOC[C@@H]2C)c2ccc(-c3ccc(OC)c(CO)c3)nc2n1` [Example 18by]: the IC50 is below 1000 nM.

As for `C[C@H]1COCCN1c1nc(N2CCOC[C@@H]2C)c2ccc(-c3ccc(CNc4cc[nH]n4)o3)nc2n1` [Example 7i], the IC50 was below 1000 nM.

`C[C@H]1COCCN1c1nc(N2CCOC[C@@H]2C)c2ccc(-c3cccnc3)nc2n1` [Example 1bu]: the IC50 was below 1000 nM.

For the molecule `CC(C)C(=O)NCc1cccc(-c2ccc3c(N4CCOC[C@@H]4C)nc(N4CCOC[C@@H]4C)nc3n2)c1` [Example 5d], the IC50 was below 1000 nM.

Take `C[C@H]1COCCN1c1nc(N2CCOC[C@@H]2C)c2ccc(-c3ccc(CNC4CC4)o3)nc2n1` [Example 7e]: the half-inhibitory concentration (IC50) was below 1000 nM.

Consider `C[C@H]1COCCN1c1nc(N2CCC(CCO)CC2)nc2nc(-c3ccc(N)nc3)ccc12` [Example 2j], for which the IC50 is below 1000 nM.

For the molecule `COC(=O)[C@@H]1C[C@@H](O)CN1c1nc(N2CCOC[C@@H]2C)c2ccc(-c3ccc(OC)c(CO)c3)nc2n1` [Example 18aa], the IC50 was below 1000 nM.

Consider `C[C@H]1COCCN1c1nc(N2CCOC[C@@H]2C)c2ccc(-c3cccc(C#N)c3)nc2n1` [Example 1aw], for which the IC50 was below 1000 nM.

Take `C[C@@H]1CN(c2nc(N3CCOC[C@@H]3C)c3ccc(-c4ccncc4)nc3n2)C[C@H](C)O1` [Example 1ce]: the half-maximal inhibitory concentration (IC50) is below 1000 nM.
